One experiment deals with hNav1.5 (Homo sapiens, UniProt Q14524). In words: cell-based.
The target in another experiment is hNav1.3 (Homo sapiens, UniProt Q9NY46). Description: cell-based. The following applies: IonWorks Quattro, read-out: IWQ Use Nav1.3.
Where [1] appears, read: IonWorks Quattro, Use, read-out: IWQ Use Nav1.5.
[2] abbreviates: clamped to −110 mV, depolarized to −10 mV, 5 min after compound, n=2.

Like-named read-outs stand apart in the source and are kept apart here. Positions of bridges follow the written chain, without caps; N, C: chain ends. Non-standard residues stand in square brackets, D forms with d. Residues, ends and D or L forms follow the SMILES beside them. 1Nal = N[C@@H](Cc1cccc2ccccc12)C(=O)O

hNav1.3, sequence (Q9NY46 whole entry, looked up): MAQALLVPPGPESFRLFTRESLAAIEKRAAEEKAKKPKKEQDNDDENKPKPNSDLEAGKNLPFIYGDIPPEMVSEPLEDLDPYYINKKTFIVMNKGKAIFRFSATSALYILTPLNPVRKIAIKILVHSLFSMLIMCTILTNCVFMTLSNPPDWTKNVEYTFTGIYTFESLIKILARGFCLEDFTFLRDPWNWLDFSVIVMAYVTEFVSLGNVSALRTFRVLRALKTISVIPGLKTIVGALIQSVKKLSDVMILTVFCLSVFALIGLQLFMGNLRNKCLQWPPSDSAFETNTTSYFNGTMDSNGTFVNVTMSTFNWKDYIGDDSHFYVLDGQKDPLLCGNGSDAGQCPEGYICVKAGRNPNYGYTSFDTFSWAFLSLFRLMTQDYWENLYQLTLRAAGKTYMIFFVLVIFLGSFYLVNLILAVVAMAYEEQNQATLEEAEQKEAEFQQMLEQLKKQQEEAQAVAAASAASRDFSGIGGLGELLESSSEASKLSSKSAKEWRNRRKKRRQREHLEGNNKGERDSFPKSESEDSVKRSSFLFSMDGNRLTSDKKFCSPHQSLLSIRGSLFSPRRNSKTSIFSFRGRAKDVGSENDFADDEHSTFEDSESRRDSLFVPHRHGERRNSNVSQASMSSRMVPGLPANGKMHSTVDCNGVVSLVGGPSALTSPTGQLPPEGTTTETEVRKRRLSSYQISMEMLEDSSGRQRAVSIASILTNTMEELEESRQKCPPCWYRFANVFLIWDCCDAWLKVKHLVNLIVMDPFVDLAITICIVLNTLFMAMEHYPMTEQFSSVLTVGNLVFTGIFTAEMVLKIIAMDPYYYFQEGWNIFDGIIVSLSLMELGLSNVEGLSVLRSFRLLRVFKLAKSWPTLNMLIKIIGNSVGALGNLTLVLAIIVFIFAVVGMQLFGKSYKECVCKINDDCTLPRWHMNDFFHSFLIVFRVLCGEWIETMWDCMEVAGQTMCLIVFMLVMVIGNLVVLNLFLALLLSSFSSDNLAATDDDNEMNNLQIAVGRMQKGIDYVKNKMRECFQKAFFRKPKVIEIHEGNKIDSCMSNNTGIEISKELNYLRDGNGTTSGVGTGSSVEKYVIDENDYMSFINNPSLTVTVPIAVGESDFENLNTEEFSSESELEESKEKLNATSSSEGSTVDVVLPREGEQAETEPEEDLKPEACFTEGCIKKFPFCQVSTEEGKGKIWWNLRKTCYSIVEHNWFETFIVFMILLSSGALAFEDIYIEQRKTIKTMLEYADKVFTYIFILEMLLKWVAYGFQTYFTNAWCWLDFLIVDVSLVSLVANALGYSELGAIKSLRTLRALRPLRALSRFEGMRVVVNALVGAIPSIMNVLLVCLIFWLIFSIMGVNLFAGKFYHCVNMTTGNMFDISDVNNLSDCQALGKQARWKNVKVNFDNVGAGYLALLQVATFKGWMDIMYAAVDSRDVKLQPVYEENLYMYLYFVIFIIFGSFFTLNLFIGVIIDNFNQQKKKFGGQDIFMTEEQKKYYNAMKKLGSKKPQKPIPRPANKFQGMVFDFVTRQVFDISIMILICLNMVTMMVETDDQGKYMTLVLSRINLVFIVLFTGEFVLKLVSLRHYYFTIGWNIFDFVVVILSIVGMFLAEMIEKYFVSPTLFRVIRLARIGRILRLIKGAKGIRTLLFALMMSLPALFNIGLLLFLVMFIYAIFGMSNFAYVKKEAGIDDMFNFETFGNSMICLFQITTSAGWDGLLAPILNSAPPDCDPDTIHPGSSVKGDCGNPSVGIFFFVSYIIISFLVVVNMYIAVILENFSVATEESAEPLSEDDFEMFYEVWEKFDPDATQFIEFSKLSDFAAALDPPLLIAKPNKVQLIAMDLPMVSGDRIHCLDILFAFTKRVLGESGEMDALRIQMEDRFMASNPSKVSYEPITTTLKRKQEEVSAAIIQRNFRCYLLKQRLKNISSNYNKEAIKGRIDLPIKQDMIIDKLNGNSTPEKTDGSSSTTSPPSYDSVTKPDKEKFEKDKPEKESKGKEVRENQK
hNav1.5, sequence (Q14524 whole entry, looked up): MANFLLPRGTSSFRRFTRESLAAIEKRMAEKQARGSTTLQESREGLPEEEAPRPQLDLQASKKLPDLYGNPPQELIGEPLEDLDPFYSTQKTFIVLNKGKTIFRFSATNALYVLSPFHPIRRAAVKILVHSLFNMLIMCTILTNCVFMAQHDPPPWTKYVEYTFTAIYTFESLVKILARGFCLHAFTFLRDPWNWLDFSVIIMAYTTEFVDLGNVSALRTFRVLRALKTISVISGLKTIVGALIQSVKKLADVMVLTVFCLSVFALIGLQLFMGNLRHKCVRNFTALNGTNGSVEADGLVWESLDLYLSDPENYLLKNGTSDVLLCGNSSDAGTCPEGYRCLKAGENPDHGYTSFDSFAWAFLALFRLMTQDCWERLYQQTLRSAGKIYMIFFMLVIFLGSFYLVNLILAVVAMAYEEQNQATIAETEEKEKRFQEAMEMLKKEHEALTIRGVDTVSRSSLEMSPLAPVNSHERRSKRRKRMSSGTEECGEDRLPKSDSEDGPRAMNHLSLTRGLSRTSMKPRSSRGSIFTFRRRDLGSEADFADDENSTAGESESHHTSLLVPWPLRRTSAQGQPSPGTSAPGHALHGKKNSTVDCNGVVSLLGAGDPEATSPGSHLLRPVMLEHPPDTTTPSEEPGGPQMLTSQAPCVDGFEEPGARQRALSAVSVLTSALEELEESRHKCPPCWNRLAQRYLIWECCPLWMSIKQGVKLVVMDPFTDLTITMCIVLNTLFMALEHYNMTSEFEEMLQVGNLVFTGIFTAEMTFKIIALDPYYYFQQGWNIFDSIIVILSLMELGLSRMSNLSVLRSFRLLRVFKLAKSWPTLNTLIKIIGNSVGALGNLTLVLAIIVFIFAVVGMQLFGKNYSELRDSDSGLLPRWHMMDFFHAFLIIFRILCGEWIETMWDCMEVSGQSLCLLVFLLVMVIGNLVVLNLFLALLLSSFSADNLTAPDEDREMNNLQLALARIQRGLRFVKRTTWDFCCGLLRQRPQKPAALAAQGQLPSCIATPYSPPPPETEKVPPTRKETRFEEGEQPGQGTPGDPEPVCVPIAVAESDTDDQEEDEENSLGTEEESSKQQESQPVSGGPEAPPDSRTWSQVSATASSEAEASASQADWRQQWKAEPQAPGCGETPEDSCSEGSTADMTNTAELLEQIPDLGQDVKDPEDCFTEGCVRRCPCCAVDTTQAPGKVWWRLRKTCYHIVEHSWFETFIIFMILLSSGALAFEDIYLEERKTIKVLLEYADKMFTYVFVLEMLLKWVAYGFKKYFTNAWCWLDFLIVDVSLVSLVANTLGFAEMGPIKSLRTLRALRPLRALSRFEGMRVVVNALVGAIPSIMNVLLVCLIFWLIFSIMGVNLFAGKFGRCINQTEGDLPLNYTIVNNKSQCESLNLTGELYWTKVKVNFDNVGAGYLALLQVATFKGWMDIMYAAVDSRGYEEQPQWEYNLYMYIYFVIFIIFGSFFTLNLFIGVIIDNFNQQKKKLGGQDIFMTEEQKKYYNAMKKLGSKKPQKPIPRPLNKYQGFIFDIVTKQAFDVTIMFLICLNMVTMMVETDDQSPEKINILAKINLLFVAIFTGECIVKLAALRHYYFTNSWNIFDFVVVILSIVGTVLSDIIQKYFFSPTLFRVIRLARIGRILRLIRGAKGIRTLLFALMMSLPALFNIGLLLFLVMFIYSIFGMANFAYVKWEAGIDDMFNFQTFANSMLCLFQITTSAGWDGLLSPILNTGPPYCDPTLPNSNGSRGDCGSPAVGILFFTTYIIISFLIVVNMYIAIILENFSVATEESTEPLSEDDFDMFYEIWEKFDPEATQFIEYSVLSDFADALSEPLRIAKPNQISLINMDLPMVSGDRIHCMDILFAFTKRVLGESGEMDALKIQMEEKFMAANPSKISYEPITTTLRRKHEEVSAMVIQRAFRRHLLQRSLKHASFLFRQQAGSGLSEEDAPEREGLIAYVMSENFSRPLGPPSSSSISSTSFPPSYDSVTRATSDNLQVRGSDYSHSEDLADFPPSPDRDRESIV

`CC[C@H](C)[C@@H]1NC(=O)[C@@H]2CSSC[C@@H]3NC(=O)[C@H](C)NC(=O)[C@H](CC(C)C)NC(=O)[C@H](CC(N)=O)NC(=O)[C@@H]4CCCN4C(=O)[C@H](CCCNC(=N)N)NC(=O)[C@H](CSSC[C@H](NC(=O)[C@@H](N)CC(=O)O)C(=O)N[C@@H](CC(C)C)C(=O)NCC(=O)N[C@@H](Cc4ccccc4)C(=O)N[C@@H](CCSC)C(=O)N[C@@H](CCCNC(=N)N)C(=O)N[C@@H](CCCCN)C(=O)N2)NC(=O)[C@H](CSSC[C@@H](C(=O)N[C@@H](CCCCN)C(=O)N[C@@H](Cc2ccc(O)cc2)C(=O)N[C@H](C(=O)N[C@@H](Cc2ccccc2)C(N)=O)C(C)C)NC(=O)[C@H](Cc2c[nH]c4ccccc24)NC(=O)[C@H](CCCCN)NC(=O)[C@H](Cc2cnc[nH]2)NC(=O)[C@H]([C@@H](C)O)NC(=O)[C@H](CCCNC(=N)N)NC(=O)[C@H](CO)NC3=O)NC(=O)[C@H](CCCCN)NC(=O)[C@H](CC(=O)O)NC(=O)[C@H](CC(N)=O)NC(=O)[C@H](CC(=O)O)NC(=O)[C@@H]2CCCN2C1=O` [compound 8] (H-DCLGFMRKCIPDNDKCCRPNLACSRTHKWCKYVF-NH2; disulfide 2-17, 9-23, 16-30): the IC50 at hNav1.5 (setting [1]) is 20.4 µM; at hNav1.3 (Use) it was 0.32 µM.
The matching figures for `CSCC[C@@H]1NC(=O)[C@H](Cc2ccccc2)NC(=O)CNC(=O)[C@H](CC(C)C)NC(=O)[C@@H](NC(=O)[C@@H](N)CC(=O)O)CSSC[C@@H]2NC(=O)[C@@H]3CSSC[C@@H](C(=O)N[C@@H](CCCCN)C(=O)N[C@@H](Cc4ccc(O)cc4)C(=O)N[C@H](C(=O)N[C@@H](Cc4ccccc4)C(N)=O)C(C)C)NC(=O)[C@H](Cc4c[nH]c5ccccc45)NC(=O)[C@H](CCCCN)NC(=O)[C@H](Cc4cnc[nH]4)NC(=O)[C@H]([C@@H](C)O)NC(=O)[C@H](CCCNC(=N)N)NC(=O)[C@H](CO)NC(=O)[C@H](CSSC[C@H](NC(=O)[C@H](CCCCN)NC(=O)[C@H](CCCNC(=N)N)NC1=O)C(=O)N[C@@H](C(C)C)C(=O)N1CCC[C@H]1C(=O)N[C@@H](CC(=O)O)C(=O)N[C@@H](CC(N)=O)C(=O)N[C@@H](CC(=O)O)C(=O)N[C@@H](CCCCN)C(=O)N3)NC(=O)[C@H](C(C)C)NC(=O)[C@H](CC(C)C)NC(=O)[C@H](CC(N)=O)NC(=O)[C@@H]1CCCN1C(=O)[C@H](CCCNC(=N)N)NC2=O` [compound 301] (H-DCLGFMRKCVPDNDKCCRPNLVCSRTHKWCKYVF-NH2; disulfide 2-17, 9-23, 16-30): 7.88 µM and 0.09 µM.
The like results for `CC[C@H](C)[C@@H]1NC(=O)[C@@H]2CSSC[C@@H]3NC(=O)[C@H](C(C)C)NC(=O)[C@H](CC(C)C)NC(=O)[C@H](C)NC(=O)[C@@H]4CCCN4C(=O)[C@H](CCCNC(=N)N)NC(=O)[C@H](CSSC[C@H](NC(=O)[C@@H](N)CC(=O)O)C(=O)N[C@@H](CC(C)C)C(=O)NCC(=O)N[C@@H](Cc4ccccc4)C(=O)N[C@@H](CCSC)C(=O)N[C@@H](CCCNC(=N)N)C(=O)N[C@@H](CCCCN)C(=O)N2)NC(=O)[C@H](CSSC[C@@H](C(=O)N[C@@H](CCCCN)C(=O)N[C@@H](Cc2ccc(O)cc2)C(=O)N[C@H](C(=O)N[C@@H](Cc2ccccc2)C(N)=O)C(C)C)NC(=O)[C@H](Cc2c[nH]c4ccccc24)NC(=O)[C@H](CCCCN)NC(=O)[C@H](Cc2cnc[nH]2)NC(=O)[C@H]([C@@H](C)O)NC(=O)[C@H](CCCNC(=N)N)NC(=O)[C@H](CO)NC3=O)NC(=O)[C@H](CCCCN)NC(=O)[C@H](CC(=O)O)NC(=O)[C@H](CC(N)=O)NC(=O)[C@H](CC(=O)O)NC(=O)[C@@H]2CCCN2C1=O` [compound 7] (H-DCLGFMRKCIPDNDKCCRPALVCSRTHKWCKYVF-NH2; disulfide 2-17, 9-23, 16-30) were, in that order, 19.5 µM and 0.41 µM.
In the case of `CC[C@H](C)[C@@H]1NC(=O)[C@@H]2CSSC[C@@H]3NC(=O)[C@H](C(C)C)NC(=O)[C@H](CC(C)C)NC(=O)[C@H](CC(N)=O)NC(=O)[C@@H]4CCCN4C(=O)[C@H](CCCNC(=N)N)NC(=O)[C@H](CSSC[C@H](NC(=O)[C@@H](N)CC(=O)O)C(=O)N[C@@H](CC(C)C)C(=O)NCC(=O)N[C@@H](Cc4ccccc4)C(=O)N[C@@H](CCSC)C(=O)N[C@@H](CCCNC(=N)N)C(=O)N[C@@H](CCCCN)C(=O)N2)NC(=O)[C@H](CSSC[C@@H](C(=O)N[C@@H](CCCCN)C(=O)N[C@@H](Cc2cccc4ccccc24)C(=O)N[C@H](C(=O)N[C@@H](Cc2ccccc2)C(N)=O)C(C)C)NC(=O)[C@H](Cc2c[nH]c4ccccc24)NC(=O)[C@H](CCCCN)NC(=O)[C@H](Cc2cnc[nH]2)NC(=O)[C@H]([C@@H](C)O)NC(=O)[C@H](CCCNC(=N)N)NC(=O)[C@H](CO)NC3=O)NC(=O)[C@H](CCCCN)NC(=O)[C@H](CC(=O)O)NC(=O)[C@H](CC(N)=O)NC(=O)[C@H](CC(=O)O)NC(=O)[C@@H]2CCCN2C1=O` [compound 167] (H-DCLGFMRKCIPDNDKCCRPNLVCSRTHKWCK[1Nal]VF-NH2; disulfide 2-17, 9-23, 16-30), the IC50 against hNav1.5 (IWQ Use Nav1.5 (μM)) was found to be 3.96 µM; on hNav1.3 (Table 25, use, […]) it was 0.001 µM.
Consider `CC[C@H](C)[C@@H]1NC(=O)[C@@H]2CSSC[C@@H]3NC(=O)[C@H](C(C)C)NC(=O)[C@H](CC(C)C)NC(=O)[C@H](CC(N)=O)NC(=O)[C@@H]4CCCN4C(=O)[C@H](CCCNC(=N)N)NC(=O)[C@H](CSSC[C@H](NC(=O)[C@@H](N)CC(=O)O)C(=O)N[C@@H](CC(C)C)C(=O)N[C@@H](C)C(=O)N[C@@H](Cc4ccccc4)C(=O)N[C@@H](CCSC)C(=O)N[C@@H](CCCNC(=N)N)C(=O)N[C@@H](CCCCN)C(=O)N2)NC(=O)[C@H](CSSC[C@@H](C(=O)N[C@@H](CCCCN)C(=O)N[C@@H](Cc2ccc(O)cc2)C(=O)N[C@H](C(=O)N[C@@H](Cc2ccccc2)C(N)=O)C(C)C)NC(=O)[C@H](Cc2c[nH]c4ccccc24)NC(=O)[C@H](CCCCN)NC(=O)[C@H](Cc2cnc[nH]2)NC(=O)[C@H]([C@@H](C)O)NC(=O)[C@H](CCCNC(=N)N)NC(=O)[C@H](CO)NC3=O)NC(=O)[C@H](CCCCN)NC(=O)[C@H](CC(=O)O)NC(=O)[C@H](CC(N)=O)NC(=O)[C@H](CC(=O)O)NC(=O)[C@@H]2CCCN2C1=O` [SEQ ID NO: 141] (H-DCLAFMRKCIPDNDKCCRPNLVCSRTHKWCKYVF-NH2; disulfide 2-17, 9-23, 16-30), for which the IC50 against hNav1.5 (IWQ Use Nav1.5) was 11.3 µM; on hNav1.3 (setting [2]), 0.21 µM.
The matching figures for `CC[C@H](C)[C@@H]1NC(=O)[C@@H]2CSSC[C@@H]3NC(=O)[C@H](C(C)C)NC(=O)[C@H](CC(C)C)NC(=O)[C@H](CC(N)=O)NC(=O)[C@@H]4CCCN4C(=O)[C@H](CCCNC(=N)N)NC(=O)[C@H](CSSC[C@H](NC(=O)[C@@H](N)CC(=O)O)C(=O)N[C@@H](CC(C)C)C(=O)N[C@@H](CCC(=O)O)C(=O)N[C@@H](Cc4ccccc4)C(=O)N[C@@H](CCSC)C(=O)N[C@@H](CCCNC(=N)N)C(=O)N[C@@H](CCCCN)C(=O)N2)NC(=O)[C@H](CSSC[C@@H](C(=O)N[C@@H](CCCCN)C(=O)N[C@@H](Cc2ccc(O)cc2)C(=O)N[C@H](C(=O)N[C@@H](Cc2ccccc2)C(N)=O)C(C)C)NC(=O)[C@H](Cc2c[nH]c4ccccc24)NC(=O)[C@H](CCCCN)NC(=O)[C@H](Cc2cnc[nH]2)NC(=O)[C@H]([C@@H](C)O)NC(=O)[C@H](CCCNC(=N)N)NC(=O)[C@H](CO)NC3=O)NC(=O)[C@H](CCCCN)NC(=O)[C@H](CC(=O)O)NC(=O)[C@H](CC(N)=O)NC(=O)[C@H](CC(=O)O)NC(=O)[C@@H]2CCCN2C1=O` [SEQ ID NO: 24] (H-DCLEFMRKCIPDNDKCCRPNLVCSRTHKWCKYVF-NH2; disulfide 2-17, 9-23, 16-30): 17.6 µM and 1.33 µM.
With `CC[C@H](C)[C@@H]1NC(=O)[C@@H]2CSSC[C@@H]3NC(=O)[C@H](C(C)C)NC(=O)[C@H](CC(C)C)NC(=O)[C@H](CC(N)=O)NC(=O)[C@@H]4CCCN4C(=O)[C@H](CCCNC(=N)N)NC(=O)[C@H](CSSC[C@H](NC(=O)[C@@H](N)CCC(=O)O)C(=O)N[C@@H](CC(C)C)C(=O)NCC(=O)N[C@@H](Cc4ccccc4)C(=O)N[C@@H](CCSC)C(=O)N[C@@H](CCCNC(=N)N)C(=O)N[C@@H](CCCCN)C(=O)N2)NC(=O)[C@H](CSSC[C@@H](C(=O)N[C@@H](CCCCN)C(=O)N[C@@H](Cc2ccc(O)cc2)C(=O)N[C@H](C(=O)N[C@@H](Cc2ccccc2)C(N)=O)C(C)C)NC(=O)[C@H](Cc2c[nH]c4ccccc24)NC(=O)[C@H](CCCCN)NC(=O)[C@H](Cc2cnc[nH]2)NC(=O)[C@H]([C@@H](C)O)NC(=O)[C@H](CCCNC(=N)N)NC(=O)[C@H](CO)NC3=O)NC(=O)[C@H](CCCCN)NC(=O)[C@H](CC(=O)O)NC(=O)[C@H](CC(N)=O)NC(=O)[C@H](CC(=O)O)NC(=O)[C@@H]2CCCN2C1=O` [SEQ ID NO: 18] (H-ECLGFMRKCIPDNDKCCRPNLVCSRTHKWCKYVF-NH2; disulfide 2-17, 9-23, 16-30), the IC50 on hNav1.5 (IonWorks Quattro, clamped to −110 mV, depolarized to −10 mV, 5 min after compound, n=2, read-out: IWQ Use Nav1.5) was found to be 14.2 µM; at hNav1.3 (setting [2]), 0.15 µM.
As to `CSCC[C@@H]1NC(=O)[C@H](Cc2ccccc2)NC(=O)CNC(=O)[C@H](CC(C)C)NC(=O)[C@@H](NC(=O)[C@@H](N)CC(=O)O)CSSC[C@@H]2NC(=O)[C@@H]3CSSC[C@@H](C(=O)N[C@@H](CCCCN)C(=O)N[C@@H](Cc4ccc(O)cc4)C(=O)N[C@H](C(=O)N[C@@H](Cc4ccccc4)C(N)=O)C(C)C)NC(=O)[C@H](Cc4c[nH]c5ccccc45)NC(=O)[C@H](CCCCN)NC(=O)[C@H](Cc4cnc[nH]4)NC(=O)[C@H]([C@@H](C)O)NC(=O)[C@H](CCCNC(=N)N)NC(=O)[C@H](CO)NC(=O)[C@H](CSSC[C@H](NC(=O)[C@H](CCCCN)NC(=O)[C@H](CCCNC(=N)N)NC1=O)C(=O)N[C@@H](CCC(=O)O)C(=O)N1CCC[C@H]1C(=O)N[C@@H](CC(=O)O)C(=O)N[C@@H](CC(N)=O)C(=O)N[C@@H](CC(=O)O)C(=O)N[C@@H](CCCCN)C(=O)N3)NC(=O)[C@H](C(C)C)NC(=O)[C@H](CC(C)C)NC(=O)[C@H](CC(N)=O)NC(=O)[C@@H]1CCCN1C(=O)[C@H](CCCNC(=N)N)NC2=O` [SEQ ID NO: 146, [Glu10]GpTx-1] (H-DCLGFMRKCEPDNDKCCRPNLVCSRTHKWCKYVF-NH2; disulfide 2-17, 9-23, 16-30), the IC50 on hNav1.5 (setting [1]) worked out at 9.55 µM; on hNav1.3 (Use), 0.15 µM.

Source of the values: US9340590B2 (priority 2011, dated 2016).
